Laboratory results reported in ChEMBL document CHEMBL1121473, “Conformationally defined aromatic amino acids. Synthesis and stereochemistry of 2-endo- and 2-exo-amino-1,2,3,4-tetrahydro-1,4-ethanonaphthalene-2-carboxylic acids (2-endo- and 2-exo-aminobenzobicycle[2.2.2]octene-2-carboxylic acids)” (J Med Chem, 1980).
One block for each compound: values may come before it.

Key:
Enterococcus faecalis [1] = assay: ability to inhibit the decarboxylation of L-phenyl-alanine using a crude enzyme preparation of phenylalanine decarboxylase (PAD) from Streptococcus faecalis, at 1.76 mM concentration
Enterococcus faecalis [2] = assay: ability to inhibit the decarboxylation of L-phenyl-alanine using a crude enzyme preparation of phenylalanine decarboxylase (PAD) from Streptococcus faecalis, at 1 mM concentration
Enterococcus faecalis [3] = assay: Ability to inhibit the decarboxylation of L-phenyl-alanine using a crude enzyme preparation of phenylalanine decarboxylase (PAD) from Streptococcus faecalis at 1.76 mM concentration
Enterococcus faecalis [4] = assay: Ability to inhibit the decarboxylation of L-phenyl-alanine using a crude enzyme preparation of phenylalanine decarboxylase (PAD) from Streptococcus faecalis, at 1.76 mM concentration

inhibition (Enterococcus faecalis [1]): 8%
Structure (SMILES): C[C@](N)(Cc1ccc(O)c(O)c1)C(=O)O (racemic)

inhibition (Enterococcus faecalis [2]): 24%
Structure (SMILES): N[C@@H](Cc1ccc(Cl)cc1)C(=O)O (racemic)

Structure (SMILES): NC1(C(=O)O)CC2CC[C@@H]1c1ccccc12 (stereo in doubt; 1a)
inhibition (Enterococcus faecalis [3]): 7%

Structure (SMILES): NC1(C(=O)O)CC2CC[C@@H]1c1ccccc12 (stereo in doubt; 1b)
inhibition (Enterococcus faecalis [4]): 8%
